Experiment: Activity of the resolved enantiomers of 1-5 (test not stated)
Conditions: enantiomers resolved on Chiralpak AD; first and second peak to elute

SMILES	activity of the enantiomer (active / inactive)
CC(=O)N1N=C(c2cc(F)ccc2F)C[C@@]1(CCCO)c1ccccc1 (single isomer, unassigned; isomer 3) [(S) isomer]	active
CC(=O)N1N=C(c2cc(F)ccc2F)C[C@]1(CCCO)c1ccccc1 [(R) isomer]	inactive

From US7618971B2, “Mitotic kinesin inhibitors” (Merck & Co. Inc., priority 2004, dated 2009)
